Reference: PubChem BioAssay AID1159563 (GlaxoSmithKline (GSK), 2015)
The source made the active and inactive calls. No rule for the calls is given here.

Each compound was assayed on HepG2 cytotoxicity (assay: HepG2 cell cytotoxicity, cytotoxicity control (AID 1159563)).
In the case of `COc1ccccc1C=CCN1C[C@H]2CCC[C@@H](C1)C2(O)c1cccnc1` (some centres undefined), the IC50 is reported as > 100 µM (inactive). For `Cc1ccc2ccc(C(Nc3ccccn3)c3cccnc3)c(O)c2n1` (centres undefined), the IC50 was 20 µM. In the case of `O=C(NCCc1nc(-c2ccc(F)c(F)c2)n[nH]1)C1CCCCC1`, the IC50 is reported as > 100 µM (inactive). In the case of `O=C1CN(C(=O)c2cccc(Nc3ncc(-c4ccc5c(c4)OCO5)cn3)c2)CCN1`, the IC50 is reported as > 130 µM (inactive). For `NC(=O)c1ncccc1Nc1nc(NC2CCC(O)CC2)ncc1Br` (centres undefined), the IC50 was > 100 µM (inactive). For `CCN(CC)c1ccc(S(=O)(=O)N(CC)CC)c2nonc12`, the IC50 was > 100 µM (inactive). In the case of `O=C(Cn1cnc2cc([N+](=O)[O-])ccc2c1=O)NCCc1ccc(Cl)cc1Cl`, the IC50 is reported as > 100 µM (inactive). Work on `Nc1nc(-c2ccccn2)nc(N)c1Cc1c(F)cccc1Cl` yielded an IC50 of 20 µM. In the case of `O=C1CCCCCC1(Cc1cnc[nH]1)c1ccc(Cl)cc1Cl` (centres undefined), the IC50 is reported as 79 µM. In the case of `COc1ccc(CN(C)Cc2ccncc2)cc1-c1ccc(S(=O)(=O)NC2CCC2)s1`, the IC50 is reported as > 100 µM (inactive). In the case of `Nc1cc(-c2ccc3ncnc(N4CCOCC4)c3c2)cnc1N`, the IC50 is reported as > 100 µM (inactive). In the case of `CS(=O)(=O)c1ccc(CC(=O)Nc2nc(-c3ccc(Cl)s3)cs2)cc1`, the IC50 is reported as > 100 µM (inactive). In the case of `O=C(Cc1ccc2c(c1)CCC2)Nc1n[nH]c(-c2ccccn2)n1`, the IC50 is reported as 50 µM. In the case of `Cc1ccc(NC(=O)c2ccnc(N3CCCC3)c2)cc1-c1cc(C(N)=O)ccc1C`, the IC50 is reported as > 100 µM (inactive). With `CCc1c(C)nc(-n2nc(C)cc2NC(=O)COc2ccccc2F)[nH]c1=O` the IC50 was > 100 µM (inactive). In the case of `COc1ccc2nccc(NC(=O)C3(OC)CCN(CC(O)c4ccc5c(c4)OCCO5)CC3)c2n1` (centres undefined), the IC50 is reported as 40 µM. In the case of `CC(c1ccc2c(c1)CCCC2)N(C)c1ncc2c(N)nc(N)nc2n1` (centres undefined), the IC50 is reported as 50 µM. In the case of `CCCN(Cc1ccc(OC)c(OC)c1)Cc1cc(=O)c2c(C)cc(C)cc2[nH]1`, the IC50 is reported as 63 µM. `CCNc1cc(-c2ccccn2)nc(Nc2ccccc2)n1` showed an IC50 of 25 µM. With `CCC(CC)C(=O)Nc1cccc(C(=O)Nc2nnc(C3CCCCC3)s2)c1` the IC50 was > 100 µM (inactive). For `Cc1cccnc1CN1CCN(CCCOc2ccc(-c3ccc(C(N)=O)cc3)cc2)CC1`, the IC50 was > 100 µM (inactive). `CN(Cc1cc2ccccc2s1)c1ncc2c(N)nc(N)nc2n1` showed an IC50 of 40 µM. For `Cc1nc(-c2ccc3c(c2)OCO3)sc1C(=O)NCc1ccc2c(c1)OCO2`, the IC50 was > 100 µM (inactive). For `COc1ccc(-c2cnc(NC(=O)c3ccc(F)cc3)n2C)cc1`, the IC50 was > 100 µM (inactive). For `COc1ccccc1-c1c(C)[nH]c2nc(N)nc(C)c12`, the IC50 was > 100 µM (inactive). For `O=C(c1ccccc1)N1CCC(C(=O)N2CCC(Oc3ccccc3Cl)CC2)CC1`, the IC50 was > 100 µM (inactive). In the case of `O=C(NCCc1csc(-c2cccc(F)c2)n1)c1ccco1`, the IC50 is reported as > 100 µM (inactive). For `COCCn1c(-c2ccc3c(c2)OCO3)cnc1NCc1ccccc1OC`, the IC50 was 40 µM. With `O=C(COc1nn(-c2ccccc2)c2ncccc12)NCc1ccccc1` the IC50 was > 100 µM (inactive). For `Cc1[nH]nc(-c2nc3ccccc3[nH]2)c1C(=O)NC1CCCNC1` (centres undefined), the IC50 was > 100 µM (inactive). For `CN(Cc1nc2ccc(C(=O)NCC3CCCCC3)cc2[nH]1)C1CCCc2cccnc21` (centres undefined), the IC50 was 16 µM. With `COc1cccc(-c2c(C)nn(-c3nc(N)nc(-c4ccccn4)n3)c2N)c1` the IC50 was > 100 µM (inactive). Work on `CCOc1ccc(CN(C)Cc2nc(N)nc(Nc3ccc(C)cc3)n2)cc1` yielded an IC50 of 32 µM. In the case of `CCN(Cc1cccs1)C(=O)CSc1nnc(-c2ccc3c(c2)OCO3)o1`, the IC50 is reported as > 100 µM (inactive). In the case of `NS(=O)(=O)c1ccc(Nc2ncc3cccc(OC4CCNCC4)c3n2)cc1`, the IC50 is reported as > 100 µM (inactive). `COc1cccc(Nc2cc(C)nc(-c3ccccn3)n2)c1` gave an IC50 of 50 µM. For `Cc1ccc(NC(=O)C(C)n2nc([N+](=O)[O-])c(Br)c2C)cc1Cl` (centres undefined), the IC50 was 79 µM. With `O=C(Nc1ccc(C(=O)N2CCCC2c2ccc3c(c2)OCCCO3)cc1)c1ccco1` (centres undefined) the IC50 was > 100 µM (inactive). With `O=C1CN(Cc2ccco2)C2CS(=O)(=O)CC2N1c1ccc(Cl)cc1` (centres undefined) the IC50 was > 100 µM (inactive). `CCCCc1cc(Nc2cc(C3CCC3)[nH]n2)nc(N2CCC2C(N)=O)n1` (centres undefined) was tested, and the IC50 was > 100 µM (inactive). In the case of `Cc1ccc(CNC2CCN(C[C@@H]3Cn4c(=O)ccc5ccc(=O)n3c54)CC2)cc1F`, the IC50 is reported as > 100 µM (inactive). `NC(=O)c1ncc(N[C@@H]2CCCNC2)nc1Nc1cccc(Cl)c1` was tested, and the IC50 was 10 µM. `CNc1c(C(N)=O)c(-c2ccc3scnc3c2)nn1CC(F)(F)F` was tested, and the IC50 was > 100 µM (inactive). Work on `COc1cc(NC(=O)Nc2cccc(CNC(=O)OC3CCCCC3)c2)ccc1-c1cnco1` yielded an IC50 of 40 µM. `COc1cc2c(cc1OC)[C@H]1[C@@H](C)c3ccc(OC)c(OC)c3CN1CC2` was tested, and the IC50 was > 100 µM (inactive). Work on `N#Cc1ccc(C(=O)Nc2cccc(-c3cccc(CN4CCC(O)CC4)c3)c2)cc1` yielded an IC50 of 40 µM. For `CC(C)n1c(-c2nonc2N)nc2cccc(OCCN3CCCC3)c21`, the IC50 was > 100 µM (inactive). Compound `CN1CCN(c2nc(-c3ccc(Cl)cc3)c3c(N)n(C)nc3n2)CC1` has an IC50 of 79 µM. With `Cn1nc(C(=O)N2CCc3ccccc32)c2c1CCS(=O)(=O)C2` the IC50 was > 100 µM (inactive). For `CCC(=O)Nc1ccc(C(=O)Nc2ccccc2-c2ccccc2)cc1`, the IC50 was > 100 µM (inactive). `Cc1sc(C)c(C(F)(F)F)c1CNCCCNc1cc(=O)c2ccccc2[nH]1` was tested, and the IC50 was 50 µM. `O=C(Nc1nc(-c2ccc(S(=O)(=O)N3CCOCC3)cc2)cs1)c1ccc([N+](=O)[O-])cc1` was tested, and the IC50 was > 100 µM (inactive). With `CN(C)S(=O)(=O)c1ccc(-c2cnc(N)c(-c3nc4ccc(F)cc4[nH]3)c2)cc1` the IC50 was > 100 µM (inactive). `NS(=O)(=O)c1ccc(Nc2nccc(-c3cnn4ncccc34)n2)cc1` was tested, and the IC50 was > 100 µM (inactive). For `Cc1ccc(NC(=O)c2ccc([N+](=O)[O-])s2)cc1S(=O)(=O)N1CCOCC1`, the IC50 was 16 µM. `Cc1cc2cc(CNc3ccc4c(c3)OCO4)c(=O)n(CCO)c2cc1C` was tested, and the IC50 was > 100 µM (inactive). In the case of `COc1ccc(C(=O)N2CCC(Nc3cccnc3)C2)c(OC)n1` (centres undefined), the IC50 is reported as > 100 µM (inactive). `COc1ccc(C2C3CCCCC3(O)CCN2CC(=O)Nc2ccc(Cl)cc2Cl)cc1` (centres undefined) was tested, and the IC50 was > 100 µM (inactive). For `COc1ccc(OC)c(S(=O)(=O)N(Cc2c(F)cccc2F)[C@@H]2CCN(C#N)C2)c1`, the IC50 was 79 µM. With `Cc1ccc(Nc2nc(-c3ccccn3)cc(N3CCCC(O)C3)n2)cc1` (centres undefined) the IC50 was 40 µM. With `CS(=O)(=O)c1cccc(CNC(=O)c2cncc(N3CCN(c4ccc(F)cc4)CC3)c2)c1` the IC50 was > 100 µM (inactive). For `Cc1cc2ncn(-c3ccc([N+](=O)[O-])cc3C#N)c2cc1C`, the IC50 was > 100 µM (inactive). `O=c1ccn(-c2ccc([N+](=O)[O-])cc2Cl)c2ccc(F)cc12` was tested, and the IC50 was > 100 µM (inactive). For `COc1ccc(-c2nc3ncccc3o2)cc1NC(=O)c1cccs1`, the IC50 was > 100 µM (inactive). `Nc1nc(-c2ccccn2)nc(-n2nc(-c3ccccc3)cc2N)n1` showed an IC50 of 10 µM. `Oc1c(-c2n[nH]c(CCc3ccccc3)n2)ncc2cccnc12` showed an IC50 of 40 µM. For `O=C(CC1(O)C(=O)N(Cc2cccs2)c2ccc(Br)cc21)c1cccnc1` (centres undefined), the IC50 was 63 µM. With `CC(C)Nc1nccc(-c2c(-c3ccc(F)cc3)ncn2C2CCOCC2)n1` the IC50 was > 100 µM (inactive). With `CN1C(=O)c2ccccc2Sc2ccc(NC(=O)NCc3ccco3)cc21` the IC50 was > 100 µM (inactive). `O=C1CSC(c2cccnc2)N1c1ccc(Cl)cc1Cl` (centres undefined) was tested, and the IC50 was > 100 µM (inactive). `Cc1ccccc1CNC(=O)CN(Cc1ccccn1)Cc1ccccn1` was tested, and the IC50 was > 160 µM (inactive). With `CNc1nc(C)nc(N2CCc3cc(C(=O)NCc4ccc(-c5ccn[nH]5)cc4Cl)ccc32)n1` the IC50 was > 100 µM (inactive). In the case of `CC(Cn1ccnc1)NC(=O)C=Cc1ccc(Cl)cc1` (centres undefined), the IC50 is reported as > 100 µM (inactive). Compound `N#CN1CC[C@@H](NC(=O)Nc2ccccc2Oc2ccccc2)C1` has an IC50 of 40 µM. `COc1ccc2ncc(Cl)c(CCN3CC[C@@H](NCc4cc5c(cn4)OCS5)[C@H](O)C3)c2n1` showed an IC50 of 50 µM. With `Cc1cc2nc(N3CC[C@H]3C(N)=O)nc(Nc3cc(C4CC4)[nH]n3)c2s1` the IC50 was > 100 µM (inactive). `CCOc1ccccc1C(=O)Nc1nnc(-c2ccc3c(c2)OCO3)s1` was tested, and the IC50 was > 100 µM (inactive). With `Cn1nc([N+](=O)[O-])nc1Oc1ccc(C(=O)c2ccccc2)cc1` the IC50 was > 100 µM (inactive). In the case of `O=c1[nH]c(NCCCNCc2cc(Br)cc(Br)c2)nc2ccsc12`, the IC50 is reported as 50 µM. In the case of `CC(C)S(=O)(=O)c1ccc(-c2cnc(N)c3cc(-c4ccnc(N)n4)ccc23)cc1`, the IC50 is reported as 16 µM. `N#Cc1cc(-c2ccnc(Nc3cccc(CN4CCOCC4)c3)n2)ccc1NCCN` gave an IC50 of 50 µM. For `Cc1nn2c(NCCCO)c3c(nc2c1-c1cccs1)CCC3`, the IC50 was > 100 µM (inactive). In the case of `CC(C)Oc1cccc(N2CCC(C(=O)N3CCCN(C(C)C)CC3)CC2)c1`, the IC50 is reported as > 100 µM (inactive). `CS(=O)(=O)c1ccc(Nc2nccc(-c3cnn4ncccc34)n2)cc1` was tested, and the IC50 was 16 µM. With `COc1cccc(C(=O)[C@H]2C[C@@H]2CN(Cc2ccccn2)Cc2ccccn2)c1` the IC50 was > 100 µM (inactive). In the case of `Cc1ccc(S(=O)(=O)Nc2ccc(CN3CCN(C(=O)c4cccc(C)c4)CC3)cc2)cc1`, the IC50 is reported as > 100 µM (inactive). For `Cc1[nH]n2c(=O)c3c(nc2c1-c1ccc(Cl)cc1)CCCC3`, the IC50 was > 100 µM (inactive). `CCNc1cc(-c2ccccn2)nc(Nc2ccc(OC)cc2)n1` gave an IC50 of 40 µM. In the case of `O=C(CSc1nnc2ccc(-c3ccc(F)cc3)nn12)N1CCCCC1`, the IC50 is reported as > 100 µM (inactive). For `COc1ccc(C(=O)NC2CCN(CCn3c(=O)ccc4ncc(F)cc43)CC2)cc1Cl`, the IC50 was > 100 µM (inactive). For `Cc1nccn1C1CCCN(C(=O)c2cc3c(F)cccc3s2)C1` (centres undefined), the IC50 was > 100 µM (inactive). For `Cn1ccnc1CN1CCc2[nH]cnc2C1c1ccccc1OCc1ccccc1` (centres undefined), the IC50 was > 100 µM (inactive). For `O=C(c1cccc(Nc2ncc(-c3ccc4c(c3)OCO4)cn2)c1)N1CCOCC1`, the IC50 was > 130 µM (inactive). With `COc1ccc(C2=NCC(CSc3nnc(-c4ccc5c(c4)OCO5)o3)S2)cc1` (centres undefined) the IC50 was > 100 µM (inactive). `O=[N+]([O-])c1ccc(-c2nnn(-c3ccc(Cl)cc3)n2)o1` was tested, and the IC50 was > 100 µM (inactive). Work on `Cc1ccc(NC(C)C(=O)Nc2ccc(C#N)cc2)cc1S(=O)(=O)N1CCCCC1` (centres undefined) yielded an IC50 of 79 µM. With `CC(=O)Nc1nc(-c2cc(C)ccc2C)c(C)s1` the IC50 was > 100 µM (inactive). With `Cc1nc(C(=O)Nc2ccc3c(c2)OCO3)nn1-c1ccc(Cl)cc1` the IC50 was > 100 µM (inactive). With `CCN(CC)S(=O)(=O)c1ccc(C)c(NC(=O)c2cc(Cl)c3c(c2)OCO3)c1` the IC50 was > 100 µM (inactive).
